Laboratory results taken from the supplement of paper PMC8967900.

Experiments:
Experiment in all cases: selective drug sensitivity score (sDSS, relative to normal bone marrow) (sDSS (score)); higher = more potent and effective on the cell line relative to normal bone marrow cells
Settings in all cases: 72 h
697 = tested on: 697
ALL-PO = tested on: ALL-PO
CCRF-CEM = tested on: CCRF-CEM
COG-LL-317 = tested on: COG-LL-317
COG-LL-332h = tested on: COG-LL-332h
COG-LL-402h = tested on: COG-LL-402h
KARPAS-45 = tested on: KARPAS-45
KOPN-8 = tested on: KOPN-8
MHH-CALL-2 = tested on: MHH-CALL-2
MHH-CALL-4 = tested on: MHH-CALL-4
MOLT-16 = tested on: MOLT-16
MOLT-4 = tested on: MOLT-4
NALM-16 = tested on: NALM-16
NALM-6 = tested on: NALM-6
PEER = tested on: PEER
PF-382 = tested on: PF-382
REH = tested on: REH
RPMI-8402 = tested on: RPMI-8402
SUP-B15 = tested on: SUP-B15
TMD5 = tested on: TMD5
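Further: ALL cell lines in 384-well plates, five doses spanning 10,000-fold, each plate scaled between vehicle and 100 µmol/L benzalkonium chloride controls, sDSS an adapted area-under-curve metric.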

| Compound | selective drug sensitivity score 697 | selective drug sensitivity score (ALL-PO) | selective drug sensitivity score (CCRF-CEM) | selective drug sensitivity score (COG-LL-317) | selective drug sensitivity score (COG-LL-332h) | selective drug sensitivity score (COG-LL-402h) | selective drug sensitivity score (KARPAS-45) | selective drug sensitivity score (KOPN-8) | selective drug sensitivity score (MHH-CALL-2) | selective drug sensitivity score (MHH-CALL-4) | selective drug sensitivity score (MOLT-16) | selective drug sensitivity score (MOLT-4) | selective drug sensitivity score (NALM-16) | selective drug sensitivity score (NALM-6) | selective drug sensitivity score (PEER) | selective drug sensitivity score (PF-382) | selective drug sensitivity score (REH) | selective drug sensitivity score (RPMI-8402) | selective drug sensitivity score (SUP-B15) | selective drug sensitivity score (TMD5) |
| --- | --- | --- | --- | --- | --- | --- | --- | --- | --- | --- | --- | --- | --- | --- | --- | --- | --- | --- | --- | --- |
| COc1cc2nccc(Oc3ccc(NC(=O)Nc4cc(C)on4)c(Cl)c3)c2cc1OC [Tivozanib] (top concentration 10000 nM) | 5.16 | 1.76 | 1.26 | 0.86 | 12.2 | 3.96 | 3.86 | 9.06 | -0.34 | -2.44 | 3.66 | 3.46 | -3.44 | 2.36 | 12.2 | 1.36 | 0.36 | 1.76 | 21.7 | 5.66 |
| Cc1cc(Nc2cc(N3CCN(C)CC3)nc(Sc3ccc(NC(=O)C4CC4)cc3)n2)n[nH]1 [Tozasertib] (top concentration 10000 nM) | 23.2 | 17.3 | 21.6 | 21.6 | 19.9 | 15.4 | 8.56 | 19.1 | 11 | 4.66 | 22.7 | 15.6 | -0.34 | 16.2 | 22.6 | 7.06 | 21.2 | 4.56 | 19.1 | 14.8 |
| CC1=C(/C=C/C(C)=C/C=C/C(C)=C/C(=O)O)C(C)(C)CCC1 [Tretinoin] (top concentration 10000 nM) | -1.1 | -2.3 | -2.3 | -1.8 | -2.4 | -2.4 | -1.8 | 0.4 | -1.7 | -2.4 | -2.4 | -2.4 | -2.4 | -2.4 | -2.4 | -2.4 | -1.8 | -2.4 | -2.4 | -2.4 |
| COC(=O)c1ccc2c(c1)[nH]c1ncnc(NCCCN3CCCCC3)c12 [UM729] (top concentration 10000 nM) | 1.64 | 2.54 | 3.84 | 0.94 | 1.94 | 6.34 | 2.34 | 2.84 | -0.06 | 0.44 | 0.94 | 2.04 | 0.44 | 0.34 | 1.84 | 1.24 | 0.24 | 2.34 | 2.24 | -0.06 |
| COc1cc2c(NC3CCN(C(C)C)CC3)nc(N3CCC(F)(F)CC3)nc2cc1OCCCN1CCCC1 [UNC0642] (top concentration 10000 nM) | 0.76 | 2.96 | -0.54 | 1.66 | 1.46 | 2.66 | 3.56 | -0.74 | 0.96 | 1.46 | -2.94 | -3.44 | -3.74 | -2.24 | -0.74 | -2.14 | -0.14 | -0.74 | 3.36 | -0.84 |
| O=C(c1ccc(C(=O)N2CCC(N3CCCC3)CC2)c(Nc2ccccc2)c1)N1CCC(N2CCCC2)CC1 [UNC1215] (top concentration 10000 nM) | 0 | 0 | 0 | 0 | 0 | 0 | 0 | 0 | 0 | 0 | 0 | 0 | 0 | 0 | 0 | 0 | 0.5 | 0 | 0 | 0 |
| CCCC(CCC)C(=O)O [Valproic_acid] (top concentration 1000000 nM) | 0 | 0 | 0 | 0 | 0 | 0 | 0 | 0 | 0 | 0 | 0 | 0 | 0 | 0 | 0 | 0 | 0 | 0 | 0 | 0 |
| Clc1ccc(Nc2nnc(Cc3ccncc3)c3ccccc23)cc1 [Vatalanib] (top concentration 10000 nM) | 0 | 0 | 0 | 0.5 | 0.7 | 0 | 0 | 0 | 0.1 | 0.1 | 0 | 0 | 0 | 0 | 0.7 | 0 | 0 | 0 | 0 | 0 |
| CCCS(=O)(=O)Nc1ccc(F)c(C(=O)c2c[nH]c3ncc(-c4ccc(Cl)cc4)cc23)c1F [Vemurafenib] (top concentration 10000 nM) | 5.16 | 2.46 | 3.46 | 3.26 | 2.96 | -1.14 | 4.16 | 6.56 | 3.56 | -0.94 | 3.76 | 2.26 | -1.14 | -1.14 | 2.56 | 3.56 | 4.86 | 2.06 | 2.26 | 1.26 |
| CC[C@]1(O)C[C@H]2CN(CCc3c([nH]c4ccccc34)[C@@](C(=O)OC)(c3cc4c(cc3OC)N(C)[C@H]3[C@@](O)(C(=O)OC)[C@H](OC(C)=O)[C@]5(CC)C=CCN6CC[C@]43[C@@H]65)C2)C1 [Vinblastine] (top concentration 1000 nM) | 12.5 | 7.2 | -1.5 | -0.2 | -4.2 | 4.6 | -4.2 | 12.8 | -3.2 | -5.6 | 0.7 | -3.5 | 5.4 | 6.3 | -0.9 | -5.3 | 7.1 | 1.6 | 12.9 | -4.9 |
| CC[C@]1(O)C[C@H]2CN(CCc3c([nH]c4ccccc34)[C@@](C(=O)OC)(c3cc4c(cc3OC)N(C=O)[C@H]3[C@@](O)(C(=O)OC)[C@H](OC(C)=O)[C@]5(CC)C=CCN6CC[C@]43[C@@H]65)C2)C1 [Vincristine] (top concentration 1000 nM) | 17 | 8.32 | 4.42 | 8.92 | 4.22 | 13.7 | 5.92 | 15.8 | 5.52 | -2.28 | 9.52 | 4.02 | 12.3 | 10.7 | 6.82 | -0.18 | 17.5 | 4.72 | 18.5 | -0.08 |
| FC(F)c1nc2ccccc2n1-c1nc(N2CCOCC2)nc(N2CCOCC2)n1 [ZSTK474] (top concentration 10000 nM) | 8.46 | 10.5 | 9.36 | 1.46 | 3.86 | 13.6 | 5.96 | 11.9 | 11.4 | 7.46 | 6.46 | 7.26 | 0.56 | 11.9 | -3.64 | 5.66 | 9.36 | 5.86 | 2.56 | -1.04 |
